In experiment [1] the test system is mouse malignant melanoma B16-BL6 cells. As to the kind of experiment: Inhibitory effect on lung metastasis of mouse malignant melanoma B16-BL6 cells. Format: in vivo. The conditions noted are these: for Inhibition of lung metastasis (in words): 1 mg/kg oral, lung metastasis accelerating conditions (LPS); for LMI (%) lung metastasis inhibitory rate: LPS 3 μg i.v. before transplantation, 1 mg/kg per day oral for five days, colonies counted on 10th day, C57BL/6 mice. The procedure: Groups of mice, each group containing ten C57BL/6 mice (female, age: 8 weeks) were transplanted intravenously into the tail vein with 3×10^4 of mouse malignant melanoma B16-BL6 cells.
The mice were, when necessary, administered intravenously into the tail vein with a bacterial lipopolysaccharide (LPS) in an amount of 3 μg each within one hour before transplantation of the melanoma cells so as to accelerate lung metastasis of the melanoma [M. J. Anasagasti et al., J. Natl. Cancer Research, 89, 645-651 (1997).]
As test compounds, Compound No. 2-118, a compound of formula (IV), a compound of formula (V) and indomethacin were employed, and each was suspended in sterilized distilled water containing 0.5% w/v of carboxymethyl cellulose (CMC), and the suspensions were orally administered at a dose of 1 mg/kg per day for five days starting from the day of the melanoma cell transplantation.
Inhibitory activities on lung metastasis of the melanoma cells were evaluated in terms of the lung metastasis inhibitory rate (LMI %) by counting the number of metastatic colonies in the lung on the 10th day after intravenous transplantation of the mouse malignant melanoma B16-BL6 cells at the tail. LMI(%)=(1−Nt/Nc)×100 • Nt: Numbers of lung metastatic colonies on the 10th day in groups administered with the test compounds; and • Nc: Numbers of lung metastatic colonies on the 10th day in control groups which were not administered with the test compounds.

For experiment [2], the system named is mouse colon cancer Colon 26 cells. As to the kind of experiment: Test of anticachexia effects in mice bearing mouse colon cancer Colon 26 cells. Format: in vivo. To be noted: for Inhibition of mouse tumor cachexia and recovery of body weight loss (in words): Example 4, written in present tense, no data; for Average Weight Gain (Δg): 22 days after tumor transplantation, female CDF1 mice 16 weeks old, control −4.2; for Inhibition of mouse tumor cachexia and weight loss (in words): Examples 1-3, 1-10 mg/kg oral.
Excerpt: The test animals were CDF1 mice (females, 8 weeks old). They were employed in groups of 10 for each test. 1×10^6 mouse colon cancer Colon 26 cells were transplanted subcutaneously into each animal.
The test compounds were Compounds No. 1-94 and 2-78 as shown above in Tables 1 and 2, respectively, and having the following formulae: […]
Each test compound was suspended in sterilized distilled water containing 0.5% w/v carboxymethyl cellulose (CMC) and administered orally once per day starting on the day of the tumor cell transplantation.
Each test animal was weighed immediately after tumor cell transplantation, and the weight (A g) was recorded. Each animal was then weighed on day 19 after tumor cell transplantation, and the weight (B g) was recorded. The weight gain on day 19 after tumor cell transplantation was calculated as B−A=Δgt for the test animals. The experiment was repeated with two control groups: the first control group (control group 1) was transplanted with the tumor cells but were not treated with any test compound, and the weight gain is reported as Δgc1; the second control group (control group 2) were not transplanted with the tumor cells and were not treated with any test compound, and the weight gain is reported as Δgc2. The body weight recovery rate was determined according to the following formula based on the weight gain on day 19 after tumor cell transplantation, and this value was used as an indicator of the anticachexia effect. Body weight recovery rate (%)=(Δgt−Δgc1)/(Δgc2−Δgc1)×100
(§1) The procedure described in Example 1 was repeated, but using the compound of formula (III) as the test compound, and comparing the weight gain (Δgt) of the test group of animals to which the compound of formula (III) had been administered with a control group (Δgc) into which the tumor cells had been transplanted but to which no anti-tumor compound had been administered. The test animals were female CDF1 mice, 16 weeks old. Also, the weight gain was measured 22 days after tumor transplantation. The average body weight of each group of animals immediately after tumor transplantation was 25 to 26 g.
as §1, with “Example 2” for “Example 1”, “formula (IV)” for “formula (III)”, “mice, 7” for “mice, 16”, “measured 15” for “measured 22”, “was 20” for “was 25”, “to 21” for “to 26”
Test compounds [the compounds of formula (V), (VI), (VII), (VIII), (IX), (X), (XI), (XII), (XIII) and (XIV)] are administered in the same manner as described in Example 2.

Experiment [3] has the same test system. As to the kind of experiment: Life-prolonging activity test in mice bearing Colon 26 cells. Format: in vivo. The conditions noted are these: for Life-prolongation (in words): Example 7, animals of Examples 3 and 4, present tense, no data; for Survival Period (median: days): mice of Example 2 (16 weeks old), untreated 23.0; for Life-prolonging Index (%): mice of Example 2, (St/Sc−1)×100. The procedure: Observation of the mice used in Example 1 above was continued. The life-prolonging index was determined, based on the number of days each mouse survived, and this value was then used as an indicator of the life-prolonging effects of the test compounds.
It should be noted that, in the case of the group of mice treated with a test compound, oral administration of the respective compound once daily was continued on day 20 after tumor cell transplantation and beyond as well. Life-prolonging index (%)=(St/Sc−1)×100 • St: Median value of survival time (days) of the group of mice treated with a test compound • Sc: Median value of survival time (days) of the control group which were […].
The experiment reported in Example 5 was repeated with the animals used in Example 2. In the case of the group of mice treated with a test compound, oral administration of the respective compound once daily was continued on day 23 after tumor cell transplantation and beyond as well.
The experiment reported in Example 5 is repeated with the animals used in Examples 3 and 4.

The subject of experiment [4] is human colon cancer cell lines. The conditions noted are these: literature (Sheng 1997); COX-2 expressing line HCA-7; cited from earlier work.
Experiment [5] concerns experimental colonic polyposis. To be noted: literature (Oshima 1996; Reddy 1996); cited from earlier work.
The subject of experiment [6] is mouse colon cancer Colon 26 cells. Briefly: Test of anticachexia effects in mice bearing mouse colon cancer Colon 26 cells. Format: in vivo. To be noted: 15 days after tumor transplantation, female CDF1 mice 7 weeks old, control −3.4.

On to `COc1ccc2c(c1)c(CC(=O)O)c(C)n2C(=O)c1ccc(Cl)cc1` [Indomethacin, reference compound], for which, in experiment [1], the “Inhibition of lung metastasis (in words)” value is “had no such inhibitory activity” and the “LMI (%) lung metastasis inhibitory rate” value is −1%.
With `CS(=O)(=O)Nc1cc2c(cc1Sc1ccc(F)cc1F)C(=O)CC2` [Compound (V), N-[6-(2,4-difluorophenylthio)-1-oxoindan-5-yl]methanesulfonamide], in experiment [1], the “Inhibition of lung metastasis (in words)” value is listed as “had no such inhibitory activity” and the “LMI (%) lung metastasis inhibitory rate” value worked out at 1%. In experiment [2], the “Inhibition of mouse tumor cachexia and recovery of body weight loss (in words)” value (“Inhibition … of body weight loss (in words)” below) was “inhibit mouse tumor cachexia and recover loss of average of body weight”. In experiment [3], the “Life-prolongation (in words)” value is given as “exhibit pronounced life-prolongation”.
With `CS(=O)(=O)c1ccc(-n2nc(C(F)(F)F)cc2-c2ccc(F)cc2)cc1` [SC-58125], the “Growth inhibitory effects against human colon cancer cell lines (in words)” value in experiment [4] was “exhibits growth inhibitory effects against certain types of human colon cancer cell lines”.
Regarding `CS(=O)(=O)c1ccc(C2=C(c3ccc(F)c(F)c3)C(=O)OC2)cc1` [MF-tricyclic], in experiment [5], the “Inhibition of occurrence of experimental colonic polyposis (in words)” value is reported as “inhibit the occurrence of experimental colonic polyposis”.
Turning to `CS(=O)(=O)c1ccc(C2=C(c3ccc(F)c(F)c3)C(=O)OC2)cc1` [Compound (III), 3-(3,4-difluorophenyl)-4-(4-methanesulfonylphenyl)-5H-furan-2-one], the “Average Weight Gain (Δg)” value in experiment [2] (1 mg/kg oral once per day) was 0.0 g; in experiment [2] (3 mg/kg oral once per day) it was 0.3 g; in experiment [2] (10 mg/kg oral once per day), 0.9 g. In addition, the “Inhibition of mouse tumor cachexia and weight loss (in words)” value in experiment [2] is “inhibited mouse tumor cachexia and reduced weight loss”. The “Survival Period (median: days)” value in experiment [3] (1 mg/kg oral once daily) came to 40.5 days; in experiment [3] (3 mg/kg oral once daily) it was 37.5 days; in experiment [3] (10 mg/kg oral once daily) it was 43.5 days. Besides, the figures for the “Life-prolonging Index (%)” value in experiment [3] (1 mg/kg oral once daily), in experiment [3] (3 mg/kg oral once daily) and in experiment [3] (10 mg/kg oral once daily) were 76%, 63% and 91%, respectively.
Take `CS(=O)(=O)c1ccc(C2=C(c3cc(F)cc(F)c3)C(=O)CC2)cc1` [(XIII), 2-(3,5-difluorophenyl)-3-(4-methanesulfonylphenyl)-2-cyclopenten-1-one]: the “Inhibition … of body weight loss (in words)” value in experiment [2] was “inhibit mouse tumor cachexia and recover loss of average of body weight”. In addition, the “Life-prolongation (in words)” value in experiment [3] is recorded as “exhibit pronounced life-prolongation”.
Regarding `CCN1CC/C(=C\c2cc(C(C)(C)C)c(O)c(C(C)(C)C)c2)S1(=O)=O` [(X), (E)-2-ethyl-5-(3,5-di-t-butyl-4-hydroxy)benzylidene-1,2-isothiazolidine-1,1-dioxide], in experiment [2], the “Inhibition … of body weight loss (in words)” value was “inhibit mouse tumor cachexia and recover loss of average of body weight”. The “Life-prolongation (in words)” value in experiment [3] was “exhibit pronounced life-prolongation”.
For the molecule `Cc1ccc(-c2cc(C(F)(F)F)nn2-c2ccc(S(N)(=O)=O)cc2)cc1` [Compound (IV), 4-(5-p-tolyl-3-trifluoromethyl-1H-pyrazol-1-yl)benzenesulfonamide], the “Inhibition of lung metastasis (in words)” value in experiment [1] is “had no such inhibitory activity”. The “LMI (%) lung metastasis inhibitory rate” value in experiment [1] is reported as 9%. For the same molecule, the “Average Weight Gain (Δg)” value in experiment [6] (1 mg/kg oral once per day) is -1.2 g; in experiment [6] (3 mg/kg oral once per day), -1.3 g; in experiment [6] (10 mg/kg oral once per day), -0.6 g. Besides, the “Inhibition of mouse tumor cachexia and weight loss (in words)” value in experiment [2] is “inhibited mouse tumor cachexia and reduced weight loss”. For the same molecule, the “Life-prolongation (in words)” value in experiment [3] was “exhibit pronounced life-prolongation”.
For the molecule `CS(=O)(=O)c1ccc(C2=C(c3ccccc3)C(=O)OC2)cc1` [(XII), 3-phenyl-4-(4-methanesulfonylphenyl)-5H-furan-2-one], the “Inhibition … of body weight loss (in words)” value in experiment [2] is “inhibit mouse tumor cachexia and recover loss of average of body weight”. Besides, the “Life-prolongation (in words)” value in experiment [3] is reported as “exhibit pronounced life-prolongation”.
